21 molecules from patent US12157746B2, “Tetrahydro-1H-pyrazino[2,1-a]isoindolylquinoline compounds for the treatment of autoimmune disease” (F. HOFFMANN-LA ROCHE AG, priority 2018, dated 2024) can be followed below.

Each structure is given as a SMILES string.

The target in the experiment is T1, human TLR7 (Homo sapiens, UniProt Q9NYK1).
T1 sequence (Q9NYK1 27-1049): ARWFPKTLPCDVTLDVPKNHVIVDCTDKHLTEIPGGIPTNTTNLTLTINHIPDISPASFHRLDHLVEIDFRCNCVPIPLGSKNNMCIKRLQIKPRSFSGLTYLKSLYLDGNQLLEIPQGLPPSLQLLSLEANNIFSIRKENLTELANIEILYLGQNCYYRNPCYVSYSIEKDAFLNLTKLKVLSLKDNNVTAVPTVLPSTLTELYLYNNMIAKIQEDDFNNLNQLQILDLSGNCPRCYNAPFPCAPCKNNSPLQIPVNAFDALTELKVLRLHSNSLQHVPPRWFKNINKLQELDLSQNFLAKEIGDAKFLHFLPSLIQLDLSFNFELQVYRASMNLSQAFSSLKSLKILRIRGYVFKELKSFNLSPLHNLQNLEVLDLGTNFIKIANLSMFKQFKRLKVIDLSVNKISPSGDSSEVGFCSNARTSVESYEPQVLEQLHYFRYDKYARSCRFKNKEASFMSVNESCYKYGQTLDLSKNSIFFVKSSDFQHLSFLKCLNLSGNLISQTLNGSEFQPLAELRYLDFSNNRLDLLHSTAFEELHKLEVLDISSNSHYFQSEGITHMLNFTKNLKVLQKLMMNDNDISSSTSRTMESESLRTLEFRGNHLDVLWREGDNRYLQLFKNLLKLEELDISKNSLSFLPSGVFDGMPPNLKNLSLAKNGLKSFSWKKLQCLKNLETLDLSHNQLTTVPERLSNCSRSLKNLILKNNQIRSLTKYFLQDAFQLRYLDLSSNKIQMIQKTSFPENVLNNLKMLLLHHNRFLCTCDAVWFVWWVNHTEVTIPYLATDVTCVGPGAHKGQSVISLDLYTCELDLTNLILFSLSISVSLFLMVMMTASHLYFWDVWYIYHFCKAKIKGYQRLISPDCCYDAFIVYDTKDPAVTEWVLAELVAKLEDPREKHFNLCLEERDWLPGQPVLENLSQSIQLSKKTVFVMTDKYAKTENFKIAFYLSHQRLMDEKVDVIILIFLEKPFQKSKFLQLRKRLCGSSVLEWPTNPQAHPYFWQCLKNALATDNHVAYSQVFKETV
The experiment in a line: HEK293-Blue-hTLR-7 cells assay. Format: cell-based. To be noted: HEK293-Blue-hTLR7 cells, R848 stimulation, 20 hrs, SEAP reporter; read-out: HEK/hTLR7 IC50. The gist of the method: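 HEK293-Blue-hTLR7 cells (NF-κB/AP-1-driven SEAP reporter) incubated with serially diluted compound (1% DMSO final) and R848 agonist for 20 h at 37 °C. Supernatant SEAP measured with QUANTI-Blue (2 h, 37 °C) by absorbance at 620-655 nm; antagonism seen as reduced reporter.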
`C[C@@H]1CN(c2ccc(C#N)n3nccc23)C[C@@H]2c3ccc(N4C[C@@H](N)[C@H](O)C4)cc3CN12` [Example 110, 4-[(4R,10bS)-8-[(3R,4R)-3-amino-4-hydroxy-pyrrolidin-1-yl]-4-methyl-3,4,6,10b-tetrahydro-1H-pyrazino[2,1-a]isoindol-2-yl]pyrazolo[1,5-a]pyridine-7-carbonitrile]: the IC50 was 19 nM.

`CO[C@@H]1CN(c2ccc3c(c2)CN2C3CN(c3ccc(C#N)c4ncccc34)C[C@H]2C)C[C@@H]1N` (relative stereo) [Example 17, 5-[(4R,10bS)-8-[cis-3-amino-4-methoxy-pyrrolidin-1-yl]-4-methyl-3,4,6,10b-tetrahydro-1H-pyrazino[2,1-a]isoindol-2-yl]quinoline-8-carbonitrile]: the IC50 was less than 3.2 nM.

With `C[C@@H]1CN(c2ccc(C#N)c3ncccc23)C[C@@H]2c3ccc(NC4CNCCOC4)cc3CN12` (stereo partly drawn) [Example 56, 5-[(4R,10bS)-4-methyl-8-(1,4-oxazepan-6-ylamino)-3,4,6,10b-tetrahydro-1H-pyrazino[2,1-a]isoindol-2-yl]quinoline-8-carbonitrile], the IC50 was 6.9 nM.

Take `C[C@@H]1CN(c2ccc(C#N)c3ncccc23)C[C@@H]2c3ccc(N4CCNCC(O)C4)cc3CN12` (stereo partly drawn) [Example 15, 5-[(4R,10bS)-8-(6-hydroxy-1,4-diazepan-1-yl)-4-methyl-3,4,6,10b-tetrahydro-1H-pyrazino[2,1-a]isoindol-2-yl]quinoline-8-carbonitrile]: the IC50 was 5.8 nM.

`C[C@@H]1CN(c2ccc(C#N)c3ncccc23)C[C@@H]2c3ccc(N4C[C@@H](N)[C@](C)(O)C4)cc3CN12` [Example 45, 5-[(4R,10bS)-4-methyl-8-[trans-(3R,4R)-4-amino-3-hydroxy-3-methyl-pyrrolidin-1-yl]-3,4,6,10b-tetrahydro-1H-pyrazino[2,1-a]isoindol-2-yl]quinoline-8-carbonitrile]: the IC50 came to 4.5 nM.

With `CO[C@H]1CN(c2ccc3c(c2)CN2[C@H](C)CN(c4ccc(C#N)n5nccc45)C[C@H]32)C[C@@H]1N` [Example 95, 4-[(4R,10bS)-8-[(3S,4S)-3-amino-4-methoxy-pyrrolidin-1-yl]-4-methyl-3,4,6,10b-tetrahydro-1H-pyrazino[2,1-a]isoindol-2-yl]pyrazolo[1,5-a]pyridine-7-carbonitrile], the IC50 came out at 20.8 nM.

With `[2H]c1ccc2c(N3C[C@@H](C)N4Cc5cc(N6CC(C)(N)C6)ccc5[C@H]4C3)ccc(C#N)c2n1` [Example 92, 5-[(4R,10bS)-8-(3-amino-3-methyl-azetidin-1-yl)-4-methyl-3,4,6,10b-tetrahydro-1H-pyrazino[2,1-a]isoindol-2-yl]-2-deuterio-quinoline-8-carbonitrile], the IC50 is 3.1 nM.

Regarding `C[C@@H]1CN(c2ccc(C#N)c3ncccc23)C[C@@H]2c3ccc(N[C@H]4CNC[C@@H]4F)cc3CN12` [Example 31, 5-[(4R,10bS)-8-[[(3S,4S)-4-fluoropyrrolidin-3-yl]amino]-4-methyl-3,4,6,10b-tetrahydro-1H-pyrazino[2,1-a]isoindol-2-yl]quinoline-8-carbonitrile], the IC50 was 4.1 nM.

With `C[C@@H]1CN(c2ccc(C#N)c3ncccc23)C[C@@H]2c3ccc(N4CCOC5CNCC54)cc3CN12` (stereo partly drawn) [Example 52, 5-[(4R,10bS)-8-(3,4a,5,6,7,7a-hexahydro-2H-pyrrolo[3,4-b][1,4]oxazin-4-yl)-4-methyl-3,4,6,10b-tetrahydro-1H-pyrazino[2,1-a]isoindol-2-yl]quinoline-8-carbonitrile], the IC50 came to 8.5 nM.

As for `[2H]c1ccc2c(N3C[C@@H](C)N4Cc5cc(N6CC7CNCC(C6)O7)ccc5[C@H]4C3)ccc(C#N)c2n1` [Example 93, 5-[(4R,10bS)-4-methyl-8-(9-oxa-3,7-diazabicyclo[3.3.1]nonan-3-yl)-3,4,6,10b-tetrahydro-1H-pyrazino[2,1-a]isoindol-2-yl]-2-deuterio-quinoline-8-carbonitrile], the IC50 came to 3.8 nM.

For the molecule `CN[C@H]1CN(c2ccc3c(c2)CN2[C@H](C)CN(c4ccc(C#N)c5ncccc45)C[C@H]32)C[C@@H]1OC` [Example 23, 5-[(4R,10bS)-8-[(3S,4S)-3-methoxy-4-(methylamino)pyrrolidin-1-yl]-4-methyl-3,4,6,10b-tetrahydro-1H-pyrazino[2,1-a]isoindol-2-yl]quinoline-8-carbonitrile], the IC50 was determined as 7 nM.

With `C[C@@H]1CN(c2ccc(C#N)c3ncccc23)C[C@@H]2c3ccc(C4CNC4)cc3CN12` [Example 29, 5-[(4R,10bS)-8-(azetidin-3-yl)-4-methyl-3,4,6,10b-tetrahydro-1H-pyrazino[2,1-a]isoindol-2-yl]quinoline-8-carbonitrile], the IC50 is less than 3.2 nM.

On to `C[C@@H]1CN(c2ccc(C#N)c3ncccc23)C[C@@H]2c3ccc(N4C[C@H]5NCCO[C@@H]5C4)cc3CN12` [Example 44, 5-[(4R,10bS)-4-methyl-8-[(4aR,7aR)-3,4,4a,5,7,7a-hexahydro-2H-pyrrolo[3,4-b][1,4]oxazin-6-yl]-3,4,6,10b-tetrahydro-1H-pyrazino[2,1-a]isoindol-2-yl]quinoline-8-carbonitrile], for which the IC50 is 19.1 nM.

With `C[C@@H]1CN(c2ccc(C#N)c3ncccc23)C[C@@H]2c3ccc(N4CC[C@@H](N)C4)cc3CN12` [Example 20, 5-[(4R,10bS)-8-[(3R)-3-aminopyrrolidin-1-yl]-4-methyl-3,4,6,10b-tetrahydro-1H-pyrazino[2,1-a]isoindol-2-yl]quinoline-8-carbonitrile], the IC50 was 3.4 nM.

For the molecule `C[C@@H]1CN(c2ccc(C#N)c3ncccc23)C[C@@H]2c3ccc(N4CCN[C@H](CO)C4)cc3CN12` [Example 12, 5-[(4R,10bS)-8-[(3S)-3-(hydroxymethyl)piperazin-1-yl]-4-methyl-3,4,6,10b-tetrahydro-1H-pyrazino[2,1-a]isoindol-2-yl]quinoline-8-carbonitrile], the IC50 was less than 3.2 nM.

On to `C[C@@H]1CN(c2ccc(C#N)c3ncccc23)C[C@@H]2c3ccc(N4CC(C)(N)C4)cc3CN12` [Example 39, 5-[(4R,10bS)-8-(3-amino-3-methyl-azetidin-1-yl)-4-methyl-3,4,6,10b-tetrahydro-1H-pyrazino[2,1-a]isoindol-2-yl]quinoline-8-carbonitrile], for which the IC50 is 3 nM.

As for `C[C@@H]1CN(c2ccc(C#N)c3ncccc23)C[C@@H]2c3ccc(N[C@@H]4CNC[C@@H]4F)cc3CN12` [Example 32, 5-[(4R,10bS)-8-[[(3R,4S)-4-fluoropyrrolidin-3-yl]amino]-4-methyl-3,4,6,10b-tetrahydro-1H-pyrazino[2,1-a]isoindol-2-yl]quinoline-8-carbonitrile], the IC50 worked out at 3.5 nM.

With `CO[C@@H]1CN(c2ccc3c(c2)CN2[C@H](C)CN(c4ccc(C#N)n5ncc(F)c45)C[C@H]32)C[C@H]1N` [Example 113, 4-[(4R,10bS)-8-[(3R,4R)-3-amino-4-methoxy-pyrrolidin-1-yl]-4-methyl-3,4,6,10b-tetrahydro-1H-pyrazino[2,1-a]isoindol-2-yl]-3-fluoro-pyrazolo[1,5-a]pyridine-7-carbonitrile], the IC50 came to 6 nM.

With `C[C@@H]1CN(c2ccc(C#N)c3ncccc23)C[C@@H]2c3ccc(N4CC5(CNCCO5)C4)cc3CN12` [Example 35, 5-[(4R,10bS)-4-methyl-8-(5-oxa-2,8-diazaspiro[3.5]nonan-2-yl)-3,4,6,10b-tetrahydro-1H-pyrazino[2,1-a]isoindol-2-yl]quinoline-8-carbonitrile], the IC50 is less than 3.2 nM.

For the molecule `C[C@@H]1CN(c2ccc(C#N)c3ncccc23)C[C@@H]2c3ccc(N4CCNC[C@](C)(O)C4)cc3CN12` [Example 55A, 5-[(4R,10bS)-8-[(6S)-6-hydroxy-6-methyl-1,4-diazepan-1-yl]-4-methyl-3,4,6,10b-tetrahydro-1H-pyrazino[2,1-a]isoindol-2-yl]quinoline-8-carbonitrile], the IC50 was found to be 7.7 nM.

With `C[C@@H]1CN(c2ccc(C#N)n3nccc23)C[C@@H]2c3ccc(N4C[C@H](N)[C@@](C)(O)C4)cc3CN12` [Example 109, 4-[(4R,10bS)-8-[(3S,4S)-4-amino-3-hydroxy-3-methyl-pyrrolidin-1-yl]-4-methyl-3,4,6,10b-tetrahydro-1H-pyrazino[2,1-a]isoindol-2-yl]pyrazolo[1,5-a]pyridine-7-carbonitrile], the IC50 turned out to be 28.1 nM.
